US9708638B1, “Protease assay method using site-specific fluorescence dye labeled protein as substrate” (EZBiolab, priority 2014, dated 2017)
Blank lines part the entries; values can stand above or below the compound they belong to.

Legend:
Assay type in all cases: biochemical
[1] = tested on: ADAM 17; assay: Fluorescence polarization assay of cleavage of N-terminal FITC labeled pro-TNF-α by Adam 17; settings: inhibitor at final concentration 10 uM; FIG. 3 Trace B
Method: (§1) Cleavage of N-terminal FITC labeled pro-TNF-α was performed by a fluorescence polarization assay. The assay was performed with a SpectraMax fluorescence plate reader in 96-well format. In a typical assay, 1 μM substrate protein was preincubated at 37° C. for 20 minutes. The reaction was initiated by addition of Adam 17 to the substrate solution. The final concentration of Adam 17 was 48 nM. The total reaction volume was […]. The reaction buffer was 50 mM Tris-HCl, pH 7.5, 2.5 μM ZnCl2, 0.005% Brij-35. In inhibition assays, the inhibitor was preincubated with its target protein for 30 minutes before reaction was initiated.
(§2) The concentration of product was calculated according to equation (1): [P]=(F[S]−Fs[S])/(Fp−Fs); where [P] is the concentration of product, F is the experimental recorded fluorescence polarization value, [S] is the total concentration of substrate and Fs and Fp are fluorescence polarization values of substrate and product, respectively. Fp is determined from a synthetic peptide with an identical sequence to the N-terminal fragment of the cleavage products.
(§3) To initiate the cleavage reaction, 1 ul ADAM 17 (0.1 mg/ml) stock solution may be added to 100 ul FITC-[pro-TNF-α] in 20 mM Tris-HCL, PH 8.5. The final concentration of FITC-[pro-TNF-α] is about 1 uM.

[2] = target: T1, BACE (Homo sapiens, UniProt P56817); assay: Fluorescence polarization assay of cleavage of APP365-699-[5-TAMRA] by BACE; settings: inhibitor included in the cleavage reaction; FIG. 10 Trace B
T1 construct: made in house; host or cells: E. coli
Excerpt: Referring to FIGS. 9-11, in this example Beta-secretase (BACE) is one of the two proteases that cleave amyloid precursor protein (APP) to produce amyloid peptide 1-42. Human APP is a 733 residue protein. Full length of APP is consisted of several domains. BACE cleaves APP between residue 671 and 672. In this example, a fluorescence dye is specifically conjugated to the C-terminal end of APP365-699 that contains two independent folded domains. Gene encoding APP365-699 is fused to the N-terminal end of intein. After MESNA mediated self cleavage between APP365-699 and intein, a thioester group, is added to the C-terminal end of APP365-699. A fluorescence dye conjugated small peptide, CysGlySerLys-[5-TAMRA], is then ligated to the C-terminal end of APP365-699 to produce fluorescent dye labeled APP365-699:
As a result, fluorescence polarization of 5-TAMRA reduces. […] It proves that APP365-699-[5-TAMRA] may be used as a substrate for BACE activity assay by recording the fluorescence polarization. […] Thus, APP365-699-[5-TAMRA] may be used as a substrate for BACE activity assay by recording the fluorescence polarization and the assay may be used to identify its inhibitors.

[3] = target: T2, Renin (Homo sapiens, UniProt P00797); assay: Fluorescence polarization assay of cleavage of FITC-angiotensinogen by Renin; settings: inhibitor at final concentration 10 uM
T2 sequence (P00797 67-406): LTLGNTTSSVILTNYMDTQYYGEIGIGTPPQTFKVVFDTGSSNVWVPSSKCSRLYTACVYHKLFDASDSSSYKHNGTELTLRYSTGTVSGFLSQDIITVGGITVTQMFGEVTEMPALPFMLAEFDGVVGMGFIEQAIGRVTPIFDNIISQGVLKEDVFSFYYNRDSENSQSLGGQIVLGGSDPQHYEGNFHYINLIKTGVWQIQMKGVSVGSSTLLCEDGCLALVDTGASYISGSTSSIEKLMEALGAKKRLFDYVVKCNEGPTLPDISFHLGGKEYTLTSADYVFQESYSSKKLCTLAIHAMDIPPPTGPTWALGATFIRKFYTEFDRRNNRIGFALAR
Method: Cleavage of FITC-angiotensinogen by Renin produces two products: FITC-AAGCDRVYIHPFHL (FITC-angiotensin) and angiotensinogen protein. To initiate the cleavage reaction, 1 ul Renin (0.1 mg/ml) stock solution may be added to 100 ul FITC-angiotensinogen in 20 mM Tris-HCL, PH 8.5. The final concentration of FITC-angiotensingen may be about 1 uM. […] This confirms the specific cleavage of FITC-angiotensinogen by Renin.
An alternative strategy to label the full length angtensinogen is to delete 16 residues from the N-terminus of angtensinogen. This shorted angtensinogen has a Cys at its N-terminal end and is fused to sumo. Using the same protocol as described above, this fusion protein is expressed, purified and cleaved by Sumo protease to produce the N-terminal 16 residue deleted angtensinogen. Referring to FIG. 7, ligation of the N-terminal 16 residue deleted angtensinogen to the FITC-DRVYIHPFHLVIHNEST-thioester, a slightly different version of FITC-angiotensinogen is produced. […] Cleavage of this FITC-angiotensinogen by Renin may be measured by recording fluorescence polarization signal as a function of time, as shown in FIG. 8. […] This proves that the FITC-angiotensinogen may be used as a substrate for Renin activity assay by recording the fluorescence polarization and the assay may be used to identify its inhibitors.

[4] = target: ADAM 17 (Homo sapiens, UniProt P01375); assay: Fluorescence polarization assay of cleavage of N-terminal FITC labeled pro-TNF-α by Adam 17
Method: as §1, §2, §3

[5] = target: ADAM 17 (Homo sapiens, UniProt P78536); assay: Cleavage of peptide substrate by Adam 17 (HPLC); settings: HPLC results
Method: Cleavage of peptide substrates: Two peptide substrates were used in this study. PS1 is Mca-PLAQAV-Dpa-RSSSR-NH2 (22), a fluorescence resonance energy transfer based substrate, the activity was measured by fluorescence intensity change upon cleavage. PS2 may be the non-fluorescence version of PS1. For PS1, in a typical assay, 10 μM substrate was preincubated at 37° C. for 20 minutes. The reaction was initiated by addition of Adam 17 to the substrate solution at the final concentration of 16 nM. The total reaction volume may be 100 μl. The reaction buffer may be 50 mM Tris-HCl, pH 9.0, 2.5 μM ZnCl2, 0.005% Brij-35. In inhibition assays, inhibitor was preincubated with peptide substrate for 30 minutes. For PS2, reaction conditions were identical to PS1.
Referring to FIGS. 13 and 14, TNF-α Inhibitor is a small molecule that blocks interaction of TNF-α with its receptor by binding to TNF-α. This compound may affect the activity of Adam 17 to convert pro-TNF-α to TNF-α. Referring to FIG. 13, it is shown that at a concentration of about 200 μM, TNF-α inhibitor reduces the reaction rate by about 40%, which is validated by the electrophoresis assay results shown in FIG. 14. […] Based on the established direct binding between the compound and TNFα, it is believed that the inhibition effect is caused by the interaction of the compound to pro-TNFα.

ADAM 17 (Homo sapiens, UniProt P01375), sequence (P01375 with tags, fused parts or gaps): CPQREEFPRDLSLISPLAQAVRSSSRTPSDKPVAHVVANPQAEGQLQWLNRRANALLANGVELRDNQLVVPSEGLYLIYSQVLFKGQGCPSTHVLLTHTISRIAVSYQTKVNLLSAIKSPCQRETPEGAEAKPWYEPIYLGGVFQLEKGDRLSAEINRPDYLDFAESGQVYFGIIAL
T1 sequence (P56817 46-501): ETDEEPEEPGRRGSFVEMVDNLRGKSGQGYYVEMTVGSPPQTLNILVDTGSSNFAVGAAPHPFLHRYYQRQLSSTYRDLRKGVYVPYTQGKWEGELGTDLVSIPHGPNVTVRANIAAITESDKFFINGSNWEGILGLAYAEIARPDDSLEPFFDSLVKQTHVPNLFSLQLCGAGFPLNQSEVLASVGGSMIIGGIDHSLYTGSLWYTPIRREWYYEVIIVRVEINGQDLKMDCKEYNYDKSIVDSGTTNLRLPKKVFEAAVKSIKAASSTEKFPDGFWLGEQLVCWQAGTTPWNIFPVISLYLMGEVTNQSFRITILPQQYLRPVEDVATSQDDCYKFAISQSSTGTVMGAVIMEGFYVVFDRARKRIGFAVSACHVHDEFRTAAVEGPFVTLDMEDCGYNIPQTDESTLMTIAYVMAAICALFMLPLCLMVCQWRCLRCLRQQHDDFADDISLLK
ADAM 17 (Homo sapiens, UniProt P78536), sequence (P78536 215-824): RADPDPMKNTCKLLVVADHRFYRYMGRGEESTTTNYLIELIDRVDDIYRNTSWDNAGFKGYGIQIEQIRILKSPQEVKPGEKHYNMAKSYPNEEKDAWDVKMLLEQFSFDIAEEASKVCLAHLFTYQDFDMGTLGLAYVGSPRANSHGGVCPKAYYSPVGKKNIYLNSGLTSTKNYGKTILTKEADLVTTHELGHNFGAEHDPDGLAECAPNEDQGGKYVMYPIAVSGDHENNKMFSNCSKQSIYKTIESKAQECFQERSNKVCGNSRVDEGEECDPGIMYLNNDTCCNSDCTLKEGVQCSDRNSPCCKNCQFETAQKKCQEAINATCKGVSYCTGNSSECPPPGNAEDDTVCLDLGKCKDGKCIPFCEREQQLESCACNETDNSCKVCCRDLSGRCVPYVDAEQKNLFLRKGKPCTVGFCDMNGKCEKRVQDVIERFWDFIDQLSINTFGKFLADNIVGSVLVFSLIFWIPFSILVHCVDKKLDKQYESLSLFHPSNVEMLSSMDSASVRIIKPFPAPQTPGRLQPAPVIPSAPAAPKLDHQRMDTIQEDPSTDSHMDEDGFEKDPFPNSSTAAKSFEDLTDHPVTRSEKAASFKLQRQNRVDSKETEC

Compound: CNC(=O)[C@H](Cc1c[nH]c2ccccc12)NC(=O)[C@@H](CC(=O)NO)CC(C)C [N-[(2R)-2-(Hydroxamidocarbonylmethyl)-4-methylpentanoyl]-L-tryptophan methylamide]
- fluorescence polarization change during cleavage of FITC-[pro-TNF-α] by ADAM 17 [1]: little change

- fluorescence polarization during cleavage of APP365-699-[5-TAMRA] by BACE [2]: remains unchanged
Compound: KTEEISEVN-Sta-VAEF

- fluorescence polarization change during cleavage of FITC-angiotensinogen by Renin ([3]; FITC-angiotensinogen made from N-terminal 16 residue deleted angiotensinogen, FIG. 8 Trace B): little change
- fluorescence polarization change during cleavage of FITC-angiotensinogen by Renin ([3]; full length FITC-angiotensinogen, FIG. 6 Trace B): little change
Compound: RRPFH-Sta-IHK

Compound: Cc1cc2occ(CN(C)CCN(C)Cc3cn(-c4cccc(C(F)(F)F)c4)c4ccccc34)c(=O)c2cc1C [TNF-α inhibitor, 6,7-Dimethyl-3-((methyl-(2-(methyl-(1-(3-trifluoromethyl-phenyl)-1H-indol-3-ylmethyl)-amino)-ethyl)-amino)-methyl)-chromen-4-one]
- cleavage rate of FITC-(pro-TNF-α) by ADAM 17 ([4]; 200 uM compound pre-incubated with FITC-(pro-TNF-α) for 30 minutes): reduced
- reduction of the reaction rate (conversion of pro-TNF-α to TNF-α by Adam 17) ([4]; inhibitor at about 200 μM, FIG. 13): about 40%
- cleavage activity of Adam 17 to the peptide substrate [5]: not affected
